Assay results reported in ChEMBL document CHEMBL1201862, “PubChem BioAssay data set” (2004).
Active and inactive are the calls of the source.

Tests used:
[1] = target: T1, Rac GTPase-activating protein 1 (Homo sapiens, UniProt Q9H0H5); assay: blockers of MgcRacGAP-driven Rac1 GTP hydrolysis – biochemical, ADP Hunter fluorescence, primary and confirmatory, confirmation (AID 624330); format: functional
T1 sequence (Q9H0H5 whole entry): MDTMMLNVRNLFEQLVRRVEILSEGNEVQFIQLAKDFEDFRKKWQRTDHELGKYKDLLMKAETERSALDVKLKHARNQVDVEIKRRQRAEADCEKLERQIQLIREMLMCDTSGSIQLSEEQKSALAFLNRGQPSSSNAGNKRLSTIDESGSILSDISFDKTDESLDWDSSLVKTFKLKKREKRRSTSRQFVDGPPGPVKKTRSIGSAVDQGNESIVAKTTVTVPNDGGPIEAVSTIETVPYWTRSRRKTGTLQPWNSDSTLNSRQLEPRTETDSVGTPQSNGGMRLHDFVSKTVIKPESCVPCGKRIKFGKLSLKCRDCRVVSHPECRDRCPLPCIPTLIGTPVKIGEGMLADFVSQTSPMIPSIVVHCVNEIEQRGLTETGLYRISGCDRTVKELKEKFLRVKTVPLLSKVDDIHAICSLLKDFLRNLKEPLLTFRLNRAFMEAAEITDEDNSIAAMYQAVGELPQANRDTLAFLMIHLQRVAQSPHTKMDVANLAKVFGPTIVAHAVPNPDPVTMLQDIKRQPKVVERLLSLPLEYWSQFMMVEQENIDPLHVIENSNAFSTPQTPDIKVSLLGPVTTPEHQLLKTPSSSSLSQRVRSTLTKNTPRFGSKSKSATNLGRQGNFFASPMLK

[2] = target: T2, Corticotropin-releasing factor receptor 2/Corticotropin-releasing factor-binding protein (Homo sapiens, UniProt P24387+Q13324); assay: Dose Response confirmation of uHTS hits for small molecule antagonists of the CRF-binding protein and CRF-R2 receptor complex.; format: functional; details: read-out: IC50_Mean
T2 sequence (Q13324 whole entry): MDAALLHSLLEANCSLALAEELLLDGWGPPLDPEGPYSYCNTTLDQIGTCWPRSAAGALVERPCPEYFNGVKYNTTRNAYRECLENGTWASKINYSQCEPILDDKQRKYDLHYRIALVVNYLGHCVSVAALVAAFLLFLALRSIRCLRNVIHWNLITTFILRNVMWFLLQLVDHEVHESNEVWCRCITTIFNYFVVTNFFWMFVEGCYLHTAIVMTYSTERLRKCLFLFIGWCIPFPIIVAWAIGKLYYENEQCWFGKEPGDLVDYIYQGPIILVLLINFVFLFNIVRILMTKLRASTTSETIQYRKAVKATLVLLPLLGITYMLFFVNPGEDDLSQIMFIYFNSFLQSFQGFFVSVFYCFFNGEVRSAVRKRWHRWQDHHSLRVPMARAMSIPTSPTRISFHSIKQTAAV
T2 sequence (P24387 whole entry): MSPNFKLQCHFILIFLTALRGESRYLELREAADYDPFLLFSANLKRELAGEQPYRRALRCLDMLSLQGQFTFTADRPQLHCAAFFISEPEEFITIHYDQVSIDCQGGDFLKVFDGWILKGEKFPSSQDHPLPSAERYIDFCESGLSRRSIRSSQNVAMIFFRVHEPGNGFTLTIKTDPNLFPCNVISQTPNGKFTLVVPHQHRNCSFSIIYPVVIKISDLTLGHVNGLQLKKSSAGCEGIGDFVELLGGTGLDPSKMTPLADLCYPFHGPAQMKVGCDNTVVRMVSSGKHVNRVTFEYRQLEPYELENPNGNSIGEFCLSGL

[3] = target: T2, Corticotropin-releasing factor receptor 2/Corticotropin-releasing factor-binding protein; assay: activators of CRF receptor 2 with binding protein – uHTS hits, confirmation (AID 602473); format: functional; details: read-out: EC50_Mean
[4] = target: T3, Heat shock factor protein 1 (Mus musculus, UniProt P38532); assay: decrease of HSF1-responsive luciferase luminescence – cell-based, NIH3T3, dose retest, confirmation (AID 2382); format: functional;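 further: NIH3T3 fibroblasts with HSF1-driven luciferase reporter stressed by proteasome inhibitor MG132; luminescence from HSF1-driven luciferase expression after 8 hours of MG132 stress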
T3 sequence (P38532 whole entry): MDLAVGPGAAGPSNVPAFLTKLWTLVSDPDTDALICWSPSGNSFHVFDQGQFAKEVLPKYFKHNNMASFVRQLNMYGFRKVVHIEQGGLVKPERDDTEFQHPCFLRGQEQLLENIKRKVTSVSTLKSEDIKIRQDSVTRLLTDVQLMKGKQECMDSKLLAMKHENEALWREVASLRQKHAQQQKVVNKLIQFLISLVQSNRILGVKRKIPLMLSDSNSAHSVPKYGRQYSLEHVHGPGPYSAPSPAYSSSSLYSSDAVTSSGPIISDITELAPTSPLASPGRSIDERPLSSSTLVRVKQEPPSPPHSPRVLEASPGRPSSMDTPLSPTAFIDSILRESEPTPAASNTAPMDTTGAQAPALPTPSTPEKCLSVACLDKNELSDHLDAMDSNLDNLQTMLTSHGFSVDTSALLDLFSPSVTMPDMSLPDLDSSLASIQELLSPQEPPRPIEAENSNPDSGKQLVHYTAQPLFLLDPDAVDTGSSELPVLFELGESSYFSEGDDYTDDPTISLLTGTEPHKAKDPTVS

INS1 = assay: INS-1E survival protection against cytokine death – cell-based, luminescence, retest, dose response (AID 449756); format: functional; details: Rattus norvegicus;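 further: cell death triggered by IL-1 beta plus TNF-alpha plus IFN-gamma mixture; protective hits raise ATP signal compared with cytokine alone wells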
[5] = Trypanosoma cruzi growth suppression in host cells – NIH3T3 host cells, beta-gal luminescence, confirmation (AID 2044); format: functional, cell-based;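 further: intracellular parasites grown in NIH/3T3 mouse fibroblasts as host cells; luminescent beta-galactosidase reporter signal from transgenic T. cruzi replicating inside host cells; inhibitors lower the luminescence signal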
[6] = NIH3T3 cell viability loss – ATP luminescence, mouse fibroblasts, counter-screen, dose response (AID 2010); format: functional, cell-based;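 further: cells exposed to compound for about 90 hours before reading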
Cytochrome P450 1A2 = target: T4, Cytochrome P450 1A2 (Homo sapiens, UniProt P05177);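 further: PubChem cytochrome P450 panel assay, CYP1A2 panel member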
T4 sequence (P05177 whole entry): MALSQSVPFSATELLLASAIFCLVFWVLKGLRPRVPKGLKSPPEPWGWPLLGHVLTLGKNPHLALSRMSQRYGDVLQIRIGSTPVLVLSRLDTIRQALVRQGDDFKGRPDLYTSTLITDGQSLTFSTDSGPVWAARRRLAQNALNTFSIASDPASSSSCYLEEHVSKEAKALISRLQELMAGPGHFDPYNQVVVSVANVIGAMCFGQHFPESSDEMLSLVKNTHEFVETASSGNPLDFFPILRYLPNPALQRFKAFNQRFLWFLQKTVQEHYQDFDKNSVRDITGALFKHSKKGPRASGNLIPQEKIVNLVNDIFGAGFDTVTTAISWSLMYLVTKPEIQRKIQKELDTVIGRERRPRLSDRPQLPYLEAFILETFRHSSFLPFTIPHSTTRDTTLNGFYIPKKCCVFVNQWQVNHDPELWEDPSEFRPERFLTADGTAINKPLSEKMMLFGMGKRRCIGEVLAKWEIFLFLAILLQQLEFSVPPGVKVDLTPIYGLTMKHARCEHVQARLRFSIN

Cytochrome P450 2C9 = Cytochrome P450 2C9 (Homo sapiens, UniProt P11712)
Cytochrome P450 2C9, sequence (P11712 whole entry): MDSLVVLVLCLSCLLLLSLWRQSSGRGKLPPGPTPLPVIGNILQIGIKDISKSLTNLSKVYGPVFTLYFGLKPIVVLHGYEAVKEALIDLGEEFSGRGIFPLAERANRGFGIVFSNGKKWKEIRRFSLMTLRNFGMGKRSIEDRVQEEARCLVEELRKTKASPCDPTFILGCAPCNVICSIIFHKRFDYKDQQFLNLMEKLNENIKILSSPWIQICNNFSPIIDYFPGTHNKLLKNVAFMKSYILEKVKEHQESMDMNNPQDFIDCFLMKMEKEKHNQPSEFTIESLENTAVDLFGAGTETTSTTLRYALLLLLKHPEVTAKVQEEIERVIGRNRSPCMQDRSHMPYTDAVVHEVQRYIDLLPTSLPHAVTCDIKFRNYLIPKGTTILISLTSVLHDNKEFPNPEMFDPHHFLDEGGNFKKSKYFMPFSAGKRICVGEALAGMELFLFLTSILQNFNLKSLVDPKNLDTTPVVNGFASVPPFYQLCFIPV

Cytochrome P450 2C19 = Cytochrome P450 2C19 (Homo sapiens, UniProt P33261); assay: Cytochrome panel assay with activity outcomes. Panel member name: p450-cyp2c19 Compounds with AC50 equal or less than 10 uM are considered active; format: functional; details: read-out: AC50
Cytochrome P450 2C19, sequence (P33261 whole entry): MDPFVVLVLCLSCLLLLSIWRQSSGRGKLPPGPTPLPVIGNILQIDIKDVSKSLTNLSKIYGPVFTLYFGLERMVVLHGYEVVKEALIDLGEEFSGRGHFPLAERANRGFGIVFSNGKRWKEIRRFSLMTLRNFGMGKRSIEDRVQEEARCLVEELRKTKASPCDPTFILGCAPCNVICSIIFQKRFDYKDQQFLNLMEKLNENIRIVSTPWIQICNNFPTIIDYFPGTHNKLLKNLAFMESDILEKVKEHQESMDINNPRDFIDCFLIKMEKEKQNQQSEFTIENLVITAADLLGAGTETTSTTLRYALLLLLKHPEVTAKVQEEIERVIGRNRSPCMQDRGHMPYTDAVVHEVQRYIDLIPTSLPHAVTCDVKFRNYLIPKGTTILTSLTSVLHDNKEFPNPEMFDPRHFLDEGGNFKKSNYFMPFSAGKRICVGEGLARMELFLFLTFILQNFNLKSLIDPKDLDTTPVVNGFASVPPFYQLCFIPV

COc1ccc(NC2CCCN(C(=O)c3ccccc3-c3ncc[nH]3)C2)cc1 (stereo unspecified)
IC50 [1]: 146 µM (active)

COCCNCC(=O)Nc1ccc(C)c(S(=O)(=O)N2CCCCC2)c1
IC50 [1]: 132 µM (active)

CCOC(=O)c1nc(S)n(Cc2ccccc2)c1C(=O)OCC
IC50 [1]: 49.6 µM (active)

CCOC(=O)NC(O)C(=O)c1cccs1 (stereo unspecified)
IC50 [2]: > 47.1 µM (inactive) | EC50 [3]: > 53 µM (inactive)

CC1CCCN(C(=O)CSc2nnc(-c3ccc(O)cc3)o2)C1 (stereo unspecified)
EC50 [4]: > 195 µM (not active)

CC(=O)Nc1cc[n+](C(C)C(=O)c2ccccc2)cc1 (stereo unspecified)
EC50 [4]: > 195 µM (not active)

c1cc(CNc2ccc3c(c2)OCCO3)ccn1
EC50 [4]: 6.77 µM (active) | IC50 [1]: 108 µM (active)

COc1cc(/C=N/n2c(C)nc3ccccc3c2=O)ccc1O
IC50 [1]: 48.5 µM (active)

FC(F)(F)c1ccccc1N=C(S)N1CCN(Cc2ccc3c(c2)OCO3)CC1
AC50 (INS1): 7.02 µM (active)

CC(C)C[C@H](NC(=O)N1CCCCCC1)C(=O)O
EC50 [4]: > 195 µM (not active)

COc1ccc(-[n+]2cc(-c3ccccc3)n3c2CCCCC3)cc1
EC50 [5]: 0.453 µM (active) | EC50 [6]: > 30 µM (not active) | AC50 (INS1): 1.66 µM (active)

CCc1ccc2nc3sc(C(=O)O)cc3cc2c1
IC50 [1]: 122 µM (active)

NS(=O)(=O)c1ccc(NC(S)=Nc2ccc(F)c(F)c2)cc1
IC50 [2]: > 47.1 µM (inactive) | EC50 [3]: > 53 µM (inactive)

COc1ccc(S(=O)(=O)N2CCCCCC2)cc1C(=O)NCCc1ccccc1
IC50 [2]: > 47.1 µM (inactive) | EC50 [3]: > 53 µM (inactive)

O=C(Nc1cccc(Cl)c1)N1CCOCC1
EC50 [4]: > 195 µM (not active)

COC(=O)c1nc(Cl)c(Cl)c(N)c1Cl
EC50 [4]: > 195 µM (not active)

Cc1ccc(NC(S)=NCc2ccccn2)cc1
IC50 [2]: > 47.1 µM (inactive) | EC50 [3]: > 53 µM (inactive)

COc1ccc(C(=O)N/N=C/c2ccccc2OC(=O)c2ccccc2)cc1
AC50 (INS1): 2.35 µM (active)

COc1cccc(C2CC(c3ccccc3)n3ncnc3N2)c1 (stereo unspecified)
EC50 [4]: > 195 µM (not active)

O=C(C1CCN(C2CCN(CC3CC=CCC3)CC2)CC1)N1CCOCC1 (stereo unspecified)
IC50 [2]: > 47.1 µM (inactive) | EC50 [3]: > 53 µM (inactive)

Cc1ccc(S(=O)(=O)NC(C)(C)CSc2nncn2N)cc1
EC50 [4]: > 195 µM (not active)

COc1cccc(Cn2c(=O)c(-c3cn(C)c4ccccc34)nc3cnc(OC)nc32)c1
AC50 (Cytochrome P450 1A2): 15.8 µM (inconclusive) | AC50 (Cytochrome P450 2C9): 12.6 µM (inconclusive)

COc1ccc(-n2cccc2/C=C2/NC(=O)N(c3cccc(Cl)c3)C2=O)cc1
EC50 [4]: 30.2 µM (active)

CC1(C)CC(=O)C(/C=N/c2ccc(N)cc2)=C(O)C1
IC50 [1]: 46.9 µM (active)

COc1c(Cl)cc(Cl)cc1CNc1ccc(S(N)(=O)=O)cc1
IC50 [2]: > 47.1 µM (inactive) | EC50 [3]: > 53 µM (inactive)

O=C(c1cccc(Cl)c1)N1CCN(Cc2ccncc2)CC1
IC50 [1]: 99.7 µM (active)

CC(C)n1cc(CN2CCCC(CNS(=O)(=O)c3cccc4cccnc34)C2)cn1 (stereo unspecified)
EC50 [4]: > 195 µM (not active) | EC50 [5]: 0.798 µM (active) | EC50 [6]: > 60 µM (not active)

CCc1nnc(NC(=O)CSc2nc(C3CCCCC3)nc3ccccc23)s1
AC50 (Cytochrome P450 2C19): 5.01 µM (inconclusive) | AC50 (Cytochrome P450 2C9): 3.55 µM (inconclusive)

CC(C)(C)c1ccc(SCCc2cccnc2)cc1
IC50 [2]: > 47.1 µM (inactive) | EC50 [3]: > 53 µM (inactive)

COc1ccc(C(=O)COC(=O)CCN2C(=O)C3C4CC(C(Br)C4Br)C3C2=O)cc1 (stereo unspecified)
EC50 [4]: > 195 µM (not active)

CC(O)CNCCCOc1ccc(Cl)cc1C(C)(C)C (stereo unspecified)
EC50 [4]: 142 µM (active)

N=C(N)Nc1nc(CCN2C(=O)c3ccccc3C2=O)cs1
AC50 (Cytochrome P450 1A2): 12.6 µM (inconclusive) | AC50 (Cytochrome P450 2C9): 17.8 µM (inconclusive)

Cc1ccc2c(c1)N(C)/C(=C/c1cccc[n+]1CCO)S2
AC50 (INS1): 4.37 µM (active)

O=C(Nc1ccc(N2CCN(Cc3ccccc3Cl)CC2)cc1)c1cccnc1
AC50 (INS1): 4.75 µM (active)

O=C(O)CC1SC(Nc2ccc(O)cc2)=NC1=O (stereo unspecified)
IC50 [1]: 118 µM (active)

Cc1ccc(S(=O)(=O)N(CC(=O)NCc2ccco2)Cc2ccccc2F)cc1
IC50 [2]: > 47.1 µM (inactive) | EC50 [3]: > 53 µM (inactive)

CN(C)c1ccc(/C=N/NC(=O)c2cccc(N3CCCC3=O)c2)cc1
EC50 [4]: > 195 µM (not active)

Cc1[nH]n(CCC#N)c(=O)c1CC(=O)N1CCN(c2ccccc2)CC1
EC50 [4]: > 195 µM (not active) | IC50 [2]: > 47.1 µM (inactive) | EC50 [3]: > 53 µM (inactive)

Cc1ccc(N(CC(=O)Nc2cc(C)cc(C)c2)S(=O)(=O)c2c(C)noc2C)cc1
AC50 (INS1): 8.43 µM (active)

O=C(O)CCCn1c(=S)[nH]c2c(sc3ccc([N+](=O)[O-])cc32)c1=O
IC50 [1]: 40.3 µM (active)

Cc1nn(C)c(Oc2ccc(Cl)cc2)c1C(=O)O
IC50 [2]: > 47.1 µM (inactive) | EC50 [3]: > 53 µM (inactive)

CN(C)CCO/N=C(\c1ccc(Br)cc1)c1cccnc1
IC50 [1]: 141 µM (active)
